± gives the expanded uncertainty stated by the source.
Tests used:
[1] = for kinematic viscosity / mass density / speed of sound: 101.33 kPa, Liquid
[2] = molar heat capacity at constant pressure; settings: 101.33 kPa, Liquid, differential scanning calorimeter
[3] = refractive index (Na D-line) (dimensionless); settings: 101.33 kPa, Liquid

CCCCCCCC[n+]1cccc(C)c1.F[B-](F)(F)F [N-octyl-3-methylpyridinium tetrafluoroborate]
Settings	kinematic viscosity, [1] [m2/s]	mass density, [1] [kg/m3]	molar heat capacity at constant pressure, [2] [J/K/mol]	refractive index, [3]	speed of sound, [1] [m/s]	surface tension liquid-gas, [1] [mN/m]
278.15 K	0.00248 ± 0.00084	1106.4 ± 1.9	433.8 ± 26	–	1571.9 ± 3.7	39.82 ± 0.54
280.65 K	0.00193 ± 0.00061	1105 ± 1.9	435.7 ± 26	–	1564.9 ± 3.6	39.28 ± 0.54
283.15 K	0.00154 ± 0.00046	1103.6 ± 1.9	437.4 ± 26	1.45978 ± 0.0013	1557.7 ± 3.6	38.7 ± 0.53
285.65 K	0.00123 ± 0.00034	1102.1 ± 1.8	439.4 ± 26	1.45907 ± 0.0013	1549.2 ± 3.6	38.3 ± 0.53
288.15 K	0.00102 ± 0.00027	1100.7 ± 1.8	441.4 ± 26	1.45835 ± 0.0013	1541.2 ± 3.6	37.91 ± 0.52
290.65 K	0.000817 ± 0.0002	1099.4 ± 1.8	443.7 ± 27	1.45764 ± 0.0013	1533.5 ± 3.6	37.52 ± 0.52
293.15 K	0.000681 ± 0.00016	1097.7 ± 1.8	446.1 ± 27	1.45691 ± 0.0013	1526.3 ± 3.6	37.19 ± 0.52
295.65 K	0.000558 ± 0.00012	1096.3 ± 1.8	448.4 ± 27	1.4562 ± 0.0013	1518.7 ± 3.6	36.81 ± 0.51
298.15 K	0.000462 ± 9e-05	1094.5 ± 1.8	450.5 ± 27	1.45547 ± 0.0013	1511.4 ± 3.6	36.51 ± 0.51
300.65 K	0.000388 ± 7e-05	1093.3 ± 1.8	452.8 ± 27	1.45477 ± 0.0013	1505.4 ± 3.6	36.23 ± 0.5
303.15 K	0.000327 ± 5.4e-05	1091.5 ± 1.8	455 ± 27	1.45405 ± 0.0013	1498.1 ± 3.6	35.94 ± 0.5
305.65 K	0.00028 ± 4.2e-05	1089.7 ± 1.8	457.2 ± 27	1.45333 ± 0.0013	1491.2 ± 3.5	35.67 ± 0.5
308.15 K	0.000238 ± 3.3e-05	1088.1 ± 1.7	459.2 ± 28	1.45261 ± 0.0013	1484.6 ± 3.5	35.46 ± 0.5
310.65 K	0.000205 ± 2.5e-05	1086.3 ± 1.7	461.3 ± 28	1.4519 ± 0.0013	1478.1 ± 3.5	35.22 ± 0.49
313.15 K	0.000177 ± 2e-05	1084.7 ± 1.7	463.3 ± 28	1.45121 ± 0.0013	1472.3 ± 3.5	35.02 ± 0.49
315.65 K	0.000156 ± 1.6e-05	1083.1 ± 1.7	465.1 ± 28	1.45047 ± 0.0013	1465.7 ± 3.5	34.81 ± 0.49
318.15 K	0.000136 ± 1.2e-05	1081.4 ± 1.7	467 ± 28	1.44976 ± 0.0013	1459.3 ± 3.5	34.63 ± 0.49
320.65 K	0.000119 ± 9.2e-06	1079.8 ± 1.7	468.7 ± 28	1.44903 ± 0.0013	1453.2 ± 3.5	34.46 ± 0.49
323.15 K	0.000105 ± 6.9e-06	1078.3 ± 1.7	470.3 ± 28	1.44831 ± 0.0013	1446.5 ± 3.5	34.28 ± 0.48
325.65 K	9.27e-05 ± 5.2e-06	1076.5 ± 1.7	472 ± 28	1.4476 ± 0.0013	1440.4 ± 3.5	34.13 ± 0.48
328.15 K	8.22e-05 ± 3.7e-06	1074.9 ± 1.7	473.7 ± 28	1.4469 ± 0.0013	1433.6 ± 3.5	33.98 ± 0.48

Reference: the NIST ThermoML archive (doi:10.1021/je8002095)
